The numbers were not newly measured in US7521440B2, “Targeted oxidative therapeutic formulation” (Torquin, LLC, priority 2001, dated 2009), which cites them from elsewhere.

Data set [1] relates to peroxide-sensitive E. coli. As to conditions: infused into the blood of infected rabbits.
The test system of a further data set is E. coli. As to conditions: increasing peroxide concentration ex-vivo in rabbit or human blood.

Take `OO` [hydrogen peroxide, Hydrogen peroxide]: the bactericidal effect entry in data set [1] is listed as “no bactericidal effect”. Moreover, the direct bactericidal activity result in the data set on E. coli is given as “no evidence of direct bactericidal activity”.
